Results on 19 molecules are retold here after PubChem BioAssay (NCI).

Several values for one entry are separate records, joined by “and”; a condition that tells them apart may be missing. Equal entries are not always repeated.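 Method: 48-hour compound exposure of cells in 96-well plates, five concentrations, linear interpolation of endpoints. GI50 = concentration required for 50% inhibition of growth. Definition used: TGI = concentration required for complete inhibition of growth.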 A value given as a limit tells only on which side of the number the result lay.

Some test systems named below: BT-549 breast; MOLT-4 leukemia; T-47D breast; MDA-MB-435; SN12C renal; MCF7 breast.
What all share (test): NCI-60 cell line screen, 48 h

On to `CCCCCCCC(=O)SCC/C=C/[C@@H]1CC(=O)NCc2cccc(n2)CN(Cc2ccc(Cl)cc2)CC(=O)N[C@@H](C(C)C)C(=O)O1`, for which the GI50 in the assay with BT-549 breast was 37.1 µM; in the assay on MOLT-4 leukemia it was 3210 nM; in the assay on T-47D breast, 29300 nM; in the assay on MDA-MB-435, 6.06 µM; in the assay with SN12C renal it was 22.8 µM; in the assay with MCF7 breast it was 12100 nM. Moreover, the TGI with BT-549 breast was more than 100 µM; with MOLT-4 leukemia, more than 100 µM; in the assay with T-47D breast it was 98.7 µM; with MDA-MB-435 it was more than 100 µM; with SN12C renal, more than 100 µM; in the assay with MCF7 breast, more than 100 µM.

Take `COc1cc(C2CC(c3ccc(C)cc3)=NN2C(C)=O)ccc1Oc1ccnc2cc(Cl)ccc12` (centres undefined): the GI50 is 3.48 µM with BT-549 breast; more than 100000 nM in the assay with MOLT-4 leukemia; 2280 nM in the assay with T-47D breast; more than 100 µM with MDA-MB-435; more than 100 µM with SN12C renal; more than 100000 nM in the assay with MCF7 breast. In addition, the TGI is more than 100 µM with BT-549 breast; more than 100 µM in the assay with MOLT-4 leukemia; 73.4 µM in the assay with T-47D breast; more than 100 µM in the assay with MDA-MB-435; more than 100 µM in the assay with SN12C renal; more than 100 µM in the assay with MCF7 breast.

On to `Cc1cc(C)c2nc(Nc3nc(C)c(C)c(=O)[nH]3)nc(C)c2c1`, for which the GI50 was 2.01 µM in the assay on BT-549 breast; 2350 nM in the assay on MOLT-4 leukemia; 1650 nM with T-47D breast; 3.13 µM with MDA-MB-435; 2.27 µM with SN12C renal; 2140 nM with MCF7 breast. The TGI in the assay on BT-549 breast was determined as 8.48 µM; in the assay on MOLT-4 leukemia it was 9.37 µM; with T-47D breast, 8.42 µM; in the assay with MDA-MB-435 it was 13.2 µM; in the assay on SN12C renal it was 12 µM; in the assay on MCF7 breast, 10.7 µM.

For `CC1CCC(O)/C=C/C(=O)OC(C)C(O)/C=C/C(=O)O1` (centres undefined), the TGI with BT-549 breast, in the assay with MOLT-4 leukemia, with T-47D breast, in the assay on MDA-MB-435, in the assay on SN12C renal and with MCF7 breast was more than 100 µM throughout.

As for `O=C(O)/C=C/C(=O)Nc1cccc2c1-c1ccccc1C2=O`, the TGI in the assay with BT-549 breast is more than 100 µM; in the assay on MOLT-4 leukemia, more than 100 µM; in the assay with T-47D breast, more than 100 µM; in the assay with MDA-MB-435 it was 9.14 µM; in the assay with SN12C renal, more than 100 µM; with MCF7 breast it was more than 100 µM.

With `COc1ccc(/C(C#N)=C/c2nc3c(N4CCOCC4)nc(Cl)nc3n2C)cc1OC`, the GI50 is less than 0.01 µM with BT-549 breast; 25.1 nM in the assay on MOLT-4 leukemia; 272 nM in the assay with T-47D breast; less than 0.01 µM in the assay on MDA-MB-435; less than 0.01 µM with SN12C renal; less than 13.7 nM in the assay on MCF7 breast. In addition, the TGI in the assay with BT-549 breast was 0.244 µM; in the assay with MOLT-4 leukemia, 2.89 µM; with T-47D breast, 3.15 µM; in the assay with MDA-MB-435 it was less than 0.01 µM; in the assay on SN12C renal, 1.48 µM; in the assay with MCF7 breast it was 1.75 µM.

With `COc1ccc(-n2cc(-c3ccc(Cl)cc3)[nH]c2=S)cc1Cl`, the GI50 is 20.5 µM in the assay on BT-549 breast; 43000 nM in the assay with MOLT-4 leukemia; 18400 nM in the assay on T-47D breast; more than 100 µM with MDA-MB-435; 39.1 µM in the assay on SN12C renal; 34300 nM in the assay on MCF7 breast. Besides, the TGI in the assay with BT-549 breast is 55 µM; in the assay on MOLT-4 leukemia, more than 100 µM; in the assay on T-47D breast, more than 100 µM; with MDA-MB-435, more than 100 µM; with SN12C renal it was more than 100 µM; with MCF7 breast, more than 100 µM.

On to `CC(C)n1c2c(c3ccccc3c1=O)C(=O)c1ccccc1-2`, for which the TGI with BT-549 breast, in the assay with MOLT-4 leukemia, in the assay with T-47D breast, in the assay with MDA-MB-435, in the assay with SN12C renal and with MCF7 breast was more than 100 µM each time.

With `COC1=CC(=O)c2c(O)c3c(c(O)c2C1=O)CC(C)(O)OC3` (centres undefined), the TGI with BT-549 breast was found to be 18.7 µM; in the assay with MOLT-4 leukemia, 8.68 µM; with T-47D breast it was 8.38 µM; in the assay with MDA-MB-435, 3.05 µM; in the assay with SN12C renal it was 14.2 µM; in the assay on MCF7 breast, 7.29 µM.

On to `COC(=O)C1=C(O)C(C(=O)OC)[C@@]2(O)[C@@H](C(=O)OC)C(c3ccccc3C(F)(F)F)C[C@@H]1[C@@H]2C(=O)OC` (some centres undefined), for which the GI50 with BT-549 breast was 3.08 µM; in the assay with MOLT-4 leukemia it was 1880 nM; in the assay on T-47D breast it was 737 nM; with MDA-MB-435, 2.06 µM; in the assay on SN12C renal, 4.33 µM; in the assay on MCF7 breast, 2990 nM. The TGI in the assay with BT-549 breast was 11.9 µM; in the assay on MOLT-4 leukemia, 6.97 µM; with T-47D breast it was 5.98 µM; in the assay with MDA-MB-435, 4.53 µM; in the assay with SN12C renal, 15.2 µM; in the assay on MCF7 breast, 12.1 µM.

As to `N=C(N)c1ccc(-c2ccc(-c3ccco3)o2)cc1`, the GI50 is 5.9 µM in the assay with BT-549 breast; 3260 nM in the assay with MOLT-4 leukemia; 2920 nM with T-47D breast; 1.83 µM in the assay on MDA-MB-435; 5.97 µM in the assay on SN12C renal; 2080 nM in the assay on MCF7 breast. The TGI in the assay with BT-549 breast came to 19.8 µM; in the assay with MOLT-4 leukemia it was 10.8 µM; in the assay with T-47D breast, 12.7 µM; with MDA-MB-435, 4.03 µM; in the assay with SN12C renal, 21.2 µM; in the assay with MCF7 breast it was 14.3 µM.

On to `COc1cccc(-n2cnc3c(N/N=C/c4ccncc4)ncnc32)c1`, for which the GI50 is more than 23.8 µM in the assay with BT-549 breast; more than 25000 nM with MOLT-4 leukemia; 11200 nM in the assay on T-47D breast; 12.4 µM in the assay on MDA-MB-435; 13.2 µM in the assay with SN12C renal; more than 25000 nM in the assay on MCF7 breast. Moreover, the TGI in the assay with BT-549 breast, in the assay on MOLT-4 leukemia, in the assay on T-47D breast, in the assay with MDA-MB-435, with SN12C renal and with MCF7 breast was more than 25 µM in each case.

On to `CC(=O)c1c[nH]c2ccc(-c3ccnc(Nc4ccc(NC(=O)c5cccc(F)c5)c(CN5CCOCC5)c4)n3)cc12`, for which the GI50 with BT-549 breast was 0.208 µM; with MOLT-4 leukemia, 262 nM; in the assay on T-47D breast, 223 nM; with MDA-MB-435 it was 0.204 µM; with SN12C renal it was 0.153 µM; with MCF7 breast, 149 nM. The TGI in the assay on BT-549 breast is 3.97 µM; in the assay on MOLT-4 leukemia it was more than 100 µM; in the assay with T-47D breast, 5.45 µM; in the assay with MDA-MB-435, 1.47 µM; with SN12C renal it was more than 23.3 µM; in the assay on MCF7 breast it was 1.7 µM.

For `O=C(NCCc1ccccc1)C(c1csc2ccccc12)N(C(=O)CCl)c1ccc(-c2cnco2)cc1` (centres undefined), the GI50 in the assay on BT-549 breast is 0.228 µM; with MOLT-4 leukemia, 209 nM; in the assay with T-47D breast, 1020 nM; in the assay with MDA-MB-435, 1.54 µM; with SN12C renal, 0.412 µM; in the assay on MCF7 breast, 1430 nM. For the same molecule, the TGI turned out to be 0.574 µM with BT-549 breast; 0.678 µM with MOLT-4 leukemia; 2.89 µM in the assay with T-47D breast; 3.18 µM with MDA-MB-435; 2.03 µM with SN12C renal; 3.26 µM in the assay with MCF7 breast.

On to `CN1CCN(c2nc(C3=C(c4c[nH]c5ccccc45)C(=O)NC3=O)c3ccccc3n2)CC1`, for which the GI50 is 8.91 µM and 14.3 µM with BT-549 breast; 7610 nM and 10200 nM with MOLT-4 leukemia; 15600 nM and 26300 nM in the assay on T-47D breast; 9.08 µM and 12.4 µM in the assay on MDA-MB-435; 9.03 µM and 12.9 µM in the assay on SN12C renal; 10100 nM and 16600 nM in the assay on MCF7 breast. Also, the TGI in the assay with BT-549 breast is 20.8 µM and 29.3 µM; with MOLT-4 leukemia it was 35.9 µM and 54.8 µM; with T-47D breast, 53.4 µM and 82.4 µM; with MDA-MB-435 it was 19.4 µM and 26.1 µM; in the assay with SN12C renal it was 28.5 µM and 35.5 µM; with MCF7 breast, 27.9 µM and 40 µM.

As to `S=c1sc2ccccc2n1CN1CCN(Cc2ccccc2)CC1`, the TGI in the assay with BT-549 breast, in the assay with MOLT-4 leukemia, in the assay on T-47D breast, in the assay on MDA-MB-435, with SN12C renal and with MCF7 breast was more than 100 µM throughout.

For `N#CC1=C(N)NC(=S)NC1c1ccc(-c2ccc(-c3nc4ccccc4s3)cc2)o1` (centres undefined), the GI50 is 21.7 µM with BT-549 breast; 43200 nM with T-47D breast; 39.1 µM with MDA-MB-435; more than 50 µM in the assay with SN12C renal; 9710 nM in the assay with MCF7 breast. The TGI in the assay on BT-549 breast, in the assay with T-47D breast, in the assay with MDA-MB-435, in the assay on SN12C renal and in the assay with MCF7 breast was more than 50 µM in each case.

As for `NS(=O)(=O)OC[C@H]1O[C@@H](n2cnc3c(N[C@H]4CCc5ccccc54)ncnc32)[C@H](O)[C@@H]1O`, the GI50 in the assay with BT-549 breast was 0.0298 µM; with MOLT-4 leukemia, 220 nM; in the assay with T-47D breast, 156 nM; with MDA-MB-435 it was 0.114 µM; with SN12C renal it was 0.231 µM; in the assay with MCF7 breast, 73.6 nM. Besides, the TGI in the assay with BT-549 breast is 0.081 µM; with MOLT-4 leukemia, 1.99 µM; in the assay on T-47D breast it was 1.41 µM; in the assay on MDA-MB-435, 0.351 µM; with SN12C renal it was 1.3 µM; in the assay with MCF7 breast it was more than 100 µM.

Turning to `COC(=O)c1ccc2c(c1)[n+](=O)c(C(C)=O)c(C(F)(F)F)n2[O-]`, the GI50 was 2.07 µM with BT-549 breast; 2950 nM with MOLT-4 leukemia; 2060 nM in the assay with T-47D breast; 1.75 µM in the assay with MDA-MB-435; 1760 nM in the assay on MCF7 breast. For the same molecule, the TGI in the assay on BT-549 breast turned out to be 4.51 µM; in the assay with MOLT-4 leukemia, 17.6 µM; with T-47D breast it was 4.2 µM; in the assay with MDA-MB-435 it was 3.6 µM; with MCF7 breast, 3.37 µM.
